Measurements reported in patent US20050043326A1, “Compounds” (Pfizer Inc, priority 2003, published 2005).
pIC50: −log10 of the molar value.

How the values were obtained:
[1] = tested on: TNFα release from human peripheral blood mononuclear cells; assay: Inhibition of TNFα release from LPS-stimulated human peripheral blood mononuclear cells (TNFα screen); type: cell-based; settings: 18 hours incubation, TNFα in supernatant by ELISA
Method: Venous blood is collected from healthy volunteers and the mononuclear cells purified by centrifugation through Histopaque (Ficoll) cushions. TNFα production from these cells is stimulated by addition of lipopolysaccharide. After 18 hours incubation in the presence of LPS, the cell supernatant is removed and the concentration of TNFα in the supernatant determined by ELISA.
(§1) Data are presented below for the Examples in which the TNFα and PDE4 inhibition are presented as IC50 values in nM.

PDE4 = PDE4 inhibition: hydrolysis of tritium labelled cAMP to AMP, SPA bead scintillation counting; type: biochemical; settings: tritium labelled cAMP incubated with PDE4, yttrium silicate SPA beads
Method: The PDE4 inhibitory activity of the nicotinamide derivatives of the formula (I) is determined by the ability of compounds to inhibit the hydrolysis of cAMP to AMP by PDE4 (Thompson J W, Teraski W L, Epstein P M, Strada S J., “Assay of nucleotidephosphodiesterase and resolution of multiple molecular forms of the isoenzyme”, Advances in cyclic nucleotides research, edited by Brooker G, Greengard P, Robinson G A. Raven Press, New York 1979, 10, p. 69-92). Tritium labelled cAMP is incubated with PDE4. Following incubation, the radiolabelled AMP produced is able to bind yttrium silicate SPA beads. These SPA beads subsequently produce light that can be quantified by scintillation counting. The addition of a PDE4 inhibitor prevents the formation of AMP from cAMP and counts are diminished. The IC50 of a PDE4 inhibitor can be defined as the concentration of a compound that leads to a 50% reduction in counts compared to the PDE4 only (no inhibitor) control wells.
as §1

Row | SMILES | pIC50 ([1]; PBMC) | pIC50 [1] | pIC50 (PDE4)
1 | O=C(N[C@H]1CC[C@@H](NC(=O)c2cc(F)cnc2OC2CCSCC2)CC1)c1ccc(Cl)cc1O [Example 15, Syn-N-[4-(4-Chloro-2-hydroxy-benzoylamino)-cyclohexyl]-5-fluoro-2-(tetrahydro-thiopyran-4-yloxy)-nicotinamide] | 9.40 |  | 
2 | O=C(N[C@H]1CC[C@@H](NC(=O)c2cc(F)cnc2OC2CCSCC2)CC1)c1cc(F)ccc1O [Example 25, Syn-5-Fluoro-N-[4-(5-fluoro-2-hydroxy-benzoylamino)-cyclohexyl]-2-(tetrahydro-thiopyran-4-yloxy)-nicotinamide] | 9.10 |  | 
3 | O=C(N[C@H]1CC[C@@H](NC(=O)c2cc(Cl)cc(Cl)c2O)CC1)c1cc(F)cnc1OC1CCSCC1 [Example 26, Syn-N-[4-(3,5-Dichloro-2-hydroxy-benzoylamino)-cyclohexyl]-5-fluoro-2-(tetrahydro-thiopyran-4-yloxy)-nicotinamide] |  | 7.85 | 
4 | O=C(N[C@H]1CC[C@@H](NC(=O)c2cc(F)cnc2OC2CCSCC2)CC1)c1cc(Cl)ccc1O [Example 27, Syn-N-[4-(5-Chloro-2-hydroxy-benzoylamino)-cyclohexyl]-5-fluoro-2-(tetrahydro-thiopyran-4-yloxy)-nicotinamide] | 9.15 |  | 
5 | Cc1cccc(C(=O)N[C@H]2CC[C@@H](NC(=O)c3cc(F)cnc3OC3CCSCC3)CC2)c1O [Example 28, Syn-5-Fluoro-N-[4-(2-hydroxy-3-methyl-benzoylamino)-cyclohexyl]-2-(tetrahydro-thiopyran-4-yloxy)-nicotinamide] | 7.92 |  | 
6 | O=C(N[C@H]1CC[C@@H](NC(=O)c2cc(F)cnc2OC2CCSCC2)CC1)c1ccccc1O [Example 29, Syn-5-Fluoro-N-[4-(2-hydroxy-benzoylamino)-cyclohexyl]-2-(tetrahydro-thiopyran-4-yloxy)-nicotinamide] | 9.40 |  | 
7 | O=C(N[C@H]1CC[C@@H](NC(=O)c2cc(O)nc3ccccc23)CC1)c1cc(F)cnc1OC1CCSCC1 [Example 30, Syn-2-Hydroxy-guinoline-4-carboxylic acid (4-{[5-fluoro-2-(tetrahydro-thiopyran-4-yloxy)-pyridine-3-carbonyl]-amino}-cyclohexyl)-amide] | 8.70 |  | 
8 | Cc1cc(C(=O)N[C@H]2CC[C@@H](NC(=O)c3cc(F)cnc3OC3CCSCC3)CC2)c2cc(O)ccc2n1 [Example 31, Syn-6-Hydroxy-2-methyl-quinoline-4-carboxylic acid (4-{[5-fluoro-2-(tetrahydro-thiopyran-4-yloxy)-pyridine-3-carbonyl]-amino}-cyclohexyl)-amide] | 9.00 |  | 
9 | O=C(N[C@H]1CC[C@@H](NC(=O)c2ccnc3c(O)cccc23)CC1)c1cc(F)cnc1OC1CCSCC1 [Example 32, Syn-8-Hydroxy-quinoline-4-carboxylic acid (4-{[5-fluoro-2-(tetrahydro-thiopyran-4-yloxy)-pyridine-3-carbonyl]-amino}-cyclohexyl)-amide] | 8.00 |  | 
10 | O=C(N[C@H]1CC[C@@H](NC(=O)c2cccc3cn[nH]c23)CC1)c1cc(F)cnc1OC1CCSCC1 [Example 33, Syn-1H-Indazole-7-carboxylic acid (4-{[5-fluoro-2-(tetrahydro-thiopyran-4-yloxy)-pyridine-3-carbonyl]-amino}-cyclohexyl)-amide] | 10.15 |  | 
11 | O=C(N[C@H]1CC[C@@H](NC(=O)c2cc(F)cnc2OC2CCSCC2)CC1)c1ccc2cn[nH]c2c1 [Example 34, Syn-1H-Indazole-6-carboxylic acid (4-{[5-fluoro-2-(tetrahydro-thiopyran-4-yloxy)-pyridine-3-carbonyl]-amino}-cyclohexyl)-amide] | 9.00 |  | 
12 | Cc1cc(C(=O)N[C@H]2CC[C@@H](NC(=O)c3cc(F)cnc3OC3CCSCC3)CC2)nn1C [Example 42] | 10.70 |  | 9.52
13 | O=C(N[C@H]1CC[C@@H](NC(=O)c2cccn3c(CO)cnc23)CC1)c1cc(F)cnc1OC1CCSCC1 [Example 51, Syn-3-Hydroxymethyl-imidazo[1,2-a]pyridine-8-carboxylic acid (4-{[5-fluoro-2-(tetrahydro-thiopyran-4-yloxy)-pyridine-3-carbonyl]-amino}-cyclohexyl)-amide] | 10.00 |  | 
14 | Cc1cc(C(=O)N[C@H]2CC[C@@H](NC(=O)c3cc(F)cnc3OC3CCSCC3)CC2)nn1CCO [Example 52, Syn-5-Fluoro-N-(4-{[1-(2-hydroxy-ethyl)-5-methyl-1H-pyrazole-3-carbonyl]-amino}-cyclohexyl)-2-(tetrahydro-thiopyran-4-yloxy)-nicotinamide] | 10.52 |  | 
15 | O=C(N[C@H]1CC[C@@H](NC(=O)c2nn(CCO)c3ccccc23)CC1)c1cc(F)cnc1OC1CCSCC1 [Example 53, Syn-1-(2-Hydroxy-ethyl)-1H-indazole-3-carboxylic acid (4-{[5-fluoro-2-(tetrahydro-thiopyran-4-yloxy)-pyridine-3-carbonyl]-amino}-cyclohexyl)-amide] | 11.00 |  | 

Continued, values first:

Row | pIC50 ([1]; PBMC) | pIC50 [1] | pIC50 (PDE4) | SMILES
16 | 10.00 |  |  | CCc1cc(C(=O)N[C@H]2CC[C@@H](NC(=O)c3cc(F)cnc3OC3CCSCC3)CC2)nn1CCO [Example 54, Syn-N-(4-{[5-Ethyl-1-(2-hydroxy-ethyl)-1H-pyrazole-3-carbonyl]-amino}-cyclohexyl)-5-fluoro-2-(tetrahydro-thiopyran-4-yloxy)-nicotinamide]
17 | 7.77 |  |  | CCc1cc(C(=O)N[C@H]2CC[C@@H](NC(=O)c3cc(F)cnc3OC3CCSCC3)CC2)n(CCO)n1 [Example 55, Syn-N-(4-{[5-Ethyl-2-(2-hydroxy-ethyl)-2H-pyrazole-3-carbonyl]-amino}-cyclohexyl)-5-fluoro-2-(tetrahydro-thiopyran-4-yloxy)-nicotinamide]
18 | 7.70 |  |  | CC(C)c1cc(C(=O)N[C@H]2CC[C@@H](NC(=O)c3cc(F)cnc3OC3CCSCC3)CC2)n(CCO)n1 [Example 56, Syn-5-Fluoro-N-(4-{[2-(2-hydroxy-ethyl)-5-isopropyl-2H-pyrazole-3-carbonyl]-amino}-cyclohexyl)-2-(tetrahydro-thiopyran-4-yloxy)-nicotinamide]
19 | 10.15 |  |  | CC(C)c1cc(C(=O)N[C@H]2CC[C@@H](NC(=O)c3cc(F)cnc3OC3CCSCC3)CC2)nn1CCO [Example 57, Syn-5-Fluoro-N-(4-{[1-(2-hydroxy-ethyl)-5-isopropyl-1H-pyrazole-3-carbonyl]-amino}-cyclohexyl)-2-(tetrahydro-thiopyran-4-yloxy)-nicotinamide]
20 | 9.00 |  |  | O=C(N[C@H]1CC[C@@H](NC(=O)c2cc(F)cnc2OC2CCSCC2)CC1)c1ccc(O)cc1O [Example 58, Syn-N-[4-(2,4-Dihydroxy-benzoylamino)-cyclohexyl]-5-fluoro-2-(tetrahydro-thiopyran-4-yloxy)-nicotinamide]
21 | 10.22 |  |  | Cc1cnc2c(C(=O)N[C@H]3CC[C@@H](NC(=O)c4cc(F)cnc4OC4CCSCC4)CC3)cccn12 [Example 60, Syn-3-Methyl-imidazo[1,2a]pyridine-8-carboxylic acid (4-{[5-fluoro-2-(tetrahydro-thiopyran-4-yloxy)-pyridine-3-carbonyl]-amino}-cyclohexyl)-amide]
22 | 8.52 |  |  | O=C(N[C@H]1CC[C@@H](NC(=O)c2cc(Cl)cnc2OC2CCSCC2)CC1)c1cc(CO)ccc1O [Example 61, Syn-5-Chloro-N-[4-(2-hydroxy-5-hydroxymethyl-benzoylamino)-cyclohexyl]-2-(tetrahydro-thiopyran-4-yloxy)-nicotinamide]
23 | 7.92 |  |  | Cc1cnc(OC2CCSCC2)c(C(=O)N[C@H]2CC[C@@H](NC(=O)c3cc(CO)ccc3O)CC2)c1 [Example 62, Syn-N-[4-(2-Hydroxy-5-hydroxymethyl-benzoylamino)-cyclohexyl]-5-methyl-2-(tetrahydro-thiopyran-4-yloxy)-nicotinamide]
24 | 11.70 |  | 9.30 | Cc1ccc(C(=O)N[C@H]2CC[C@@H](NC(=O)c3cc(F)cnc3OC3CCSCC3)CC2)c(O)c1 [Example 63, Syn-5-Fluoro-N-[4-(2-hydroxy-4-methyl-benzoylamino)-cyclohexyl]-2-(tetrahydro-thiopyran-4-yloxy)-nicotinamide]
25 | 7.82 |  |  | Cc1ccc(S(=O)(=O)N[C@H]2CC[C@@H](NC(=O)c3cc(F)cnc3OC3CCSCC3)CC2)cc1 [Example 69, Syn-5-Fluoro-2-(tetrahydro-thiopyran-4-yloxy)-N-[4-(toluene-4-sulfonylamino)-cyclohexyl]-nicotinamide]
26 | 8.70 |  |  | Cc1ccccc1S(=O)(=O)N[C@H]1CC[C@@H](NC(=O)c2cc(F)cnc2OC2CCSCC2)CC1 [Example 70, Syn-5-Fluoro-2-(tetrahydro-thiopyran-4-yloxy)-N-[4-(toluene-2-sulfonylamino)-cyclohexyl]-nicotinamide]
27 |  | 12.00 |  | O=C(NC1CCC(NS(=O)(=O)c2c(O)ccc3cccnc23)CC1)c1cc(F)cnc1OC1CCSCC1 (stereo not drawn) [Example 72, Syn-5-Fluoro-N-[4-(7-hydroxy-quinoline-8-sulfonylamino)-cyclohexyl]-2-(tetrahydro-thiopyran-4-yloxy)-nicotinamide]
28 |  | 10.52 |  | O=C(NC1CCC(NS(=O)(=O)c2c(O)ccc3cccnc23)CC1)c1cccnc1OC1CCSCC1 (stereo not drawn) [Example 73, Syn-N-[4-(7-hydroxy-quinoline-8-sulfonylamino)-cyclohexyl]-2-(tetrahydro-thiopyran-4-yloxy)-nicotinamide]
